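Assay format: 96-well plates, 48-hour exposure. At the GI50, growth is halved.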 Calls of active or inactive are those of the source. No stated cut-off is given here; in the data, active = GI50 up to about 1.1 µM and inactive = higher. Square brackets hold non-standard residues; d marks the D form. Peptide text beside a SMILES is read from it. * marks the point of attachment. X26 = COC1=CC(=O)N(C(=O)[C@@H](O*)C(C)C)[C@H]1Cc1ccccc1; NMeL = CN[C@@H](CC(C)C)C(=O)O; Hexanoyl = CCCCCC(=O)*
Assays:
Assay in all cases: NCI-60 cell line screen, 48 h
[1] = test system: ACHN
[2] = test system: DU-145
[3] = test system: HCC 2998
[4] = test system: HL-60
[5] = test system: HOP-62
[6] = test system: HT-29
[7] = test system: Hs-578T
[8] = test system: IGROV-1
[9] = test system: NCI-H23
[10] = test system: NCI-H460
[11] = test system: NCI-H522
[12] = test system: OVCAR-3
[13] = test system: PC-3
[14] = test system: SF-268
[15] = test system: SF-295
[16] = test system: SK-MEL-2
[17] = test system: SK-MEL-5
[18] = test system: SW-620
[19] = test system: UO-31
[20] = test system: K562

Row | SMILES | GI50 [1] | GI50 [2] | GI50 [3] | GI50 [4] | GI50 [5] | GI50 [6] | GI50 [7] | GI50 [8] | GI50 [9] | GI50 [10] | GI50 [11] | GI50 [12] | GI50 [13] | GI50 [14] | GI50 [15] | GI50 [16] | GI50 [17] | GI50 [18] | GI50 [19] | GI50 [20]
1 | O=[N+]([O-])c1ccc2nc(-c3ccccn3)c(-c3ccccn3)nc2c1 | 80 µM (inactive) | > 100 µM (inactive) | > 100 µM (inactive) | 28 µM (inactive) | 35.1 µM (inactive) | 40.5 µM (inactive) | > 100 µM (inactive) | 94.6 µM (inactive) | > 100 µM (inactive) | 45.7 µM (inactive) | 44.9 µM (inactive) | 29.4 µM (inactive) | 38.5 µM (inactive) | > 100 µM (inactive) | 96.8 µM (inactive) | > 100 µM (inactive) | 24.4 µM (inactive) | 41.9 µM (inactive) | > 100 µM (inactive) | –
2 | O=c1[nH]c(=O)n(CCOCP(=O)(O)O)nc1Br | > 100 µM (inactive) | > 100 µM (inactive) | > 100 µM (inactive) | > 100 µM (inactive) | > 100 µM (inactive) | > 100 µM (inactive) | > 100 µM (inactive) | > 100 µM (inactive) | > 100 µM (inactive) | > 100 µM (inactive) | > 100 µM (inactive) | > 100 µM (inactive) | > 100 µM (inactive) | > 100 µM (inactive) | – | > 100 µM (inactive) | > 100 µM (inactive) | > 100 µM (inactive) | > 100 µM (inactive) | –
3 | CCCCN1C(=O)c2c(-c3sccc3N)sc(-c3sccc3N)c2C1=O | 15.7 µM (inactive) | 21.4 µM (inactive) | 73.6 µM (inactive) | – | 14.7 µM (inactive) | 14.2 µM (inactive) | 16.9 µM (inactive) | 23 µM (inactive) | 28 µM (inactive) | 26.1 µM (inactive) | 14.1 µM (inactive) | 16 µM (inactive) | 14.8 µM (inactive) | 12.3 µM (inactive) | 14.5 µM (inactive) | 32.7 µM (inactive) | 29.8 µM (inactive) | > 32.6 µM (inactive) | 6.84 µM (inactive) | 16.3 µM (inactive)
4 | O=C1C(Cl)=CC2(C=C1Cl)CCNC1=C2C(=O)c2nc[nH]c2C1=O | > 100 µM (inactive) | > 100 µM (inactive) | 39.4 µM (inactive) | 24.4 µM (inactive) | > 100 µM (inactive) | 29.6 µM (inactive) | > 100 µM (inactive) | 47.1 µM (inactive) | 27.2 µM (inactive) | 40.3 µM (inactive) | 21.1 µM (inactive) | 32.3 µM (inactive) | 35.3 µM (inactive) | 54.6 µM (inactive) | > 100 µM (inactive) | 17.3 µM (inactive) | 16.6 µM (inactive) | 26.9 µM (inactive) | > 100 µM (inactive) | 29.4 µM (inactive)
5 | CNc1nc(=S)[nH]c2sc3c(c12)CCCC3 | > 75 µM (inactive) | > 75 µM (inactive) | > 75 µM (inactive) | > 75 µM (inactive) | > 75 µM (inactive) | > 75 µM (inactive) | > 75 µM (inactive) | > 75 µM (inactive) | > 75 µM (inactive) | – | > 75 µM (inactive) | > 75 µM (inactive) | > 75 µM (inactive) | > 75 µM (inactive) | > 75 µM (inactive) | > 75 µM (inactive) | > 75 µM (inactive) | > 75 µM (inactive) | 67 µM (inactive) | > 75 µM (inactive)
6 | CSC(SC)=C(C(=O)O)P(=O)(O)O | > 100 µM (inactive) | > 100 µM (inactive) | > 100 µM (inactive) | > 100 µM (inactive) | > 100 µM (inactive) | > 100 µM (inactive) | > 100 µM (inactive) | > 100 µM (inactive) | > 100 µM (inactive) | > 100 µM (inactive) | > 100 µM (inactive) | > 100 µM (inactive) | > 100 µM (inactive) | > 100 µM (inactive) | > 100 µM (inactive) | > 100 µM (inactive) | > 100 µM (inactive) | > 100 µM (inactive) | – | –
7 | COc1ccc(C=C2C(C)=NN(c3cccc(Cl)c3)C23C(Cl)C(=O)N3c2nc3ccccc3s2)cc1 (stereo not given) | 21.5 µM (inactive) | 17.5 µM (inactive) | 3 µM (inactive) | 2.05 µM (inactive) | 20 µM (inactive) | 9.51 µM (inactive) | 14.4 µM (inactive) | 16.4 µM (inactive) | 15 µM (inactive) | 24 µM (inactive) | 8.53 µM (inactive) | 19.4 µM (inactive) | 17.2 µM (inactive) | 4.89 µM (inactive) | 22.1 µM (inactive) | 17.4 µM (inactive) | 15.1 µM (inactive) | 5.6 µM (inactive) | 16.3 µM (inactive) | 22.8 µM (inactive)
8 | N#Cc1c(N)n(-c2nc3ccccc3s2)c(=O)c2cc([N+](=O)[O-])ccc12 | 20.3 µM (inactive) | 25.6 µM (inactive) | 9.44 µM (inactive) | 7.74 µM (inactive) | 7.08 µM (inactive) | 3.5 µM (inactive) | 9.16 µM (inactive) | – | 9.38 µM (inactive) | 6.32 µM (inactive) | 6.49 µM (inactive) | 14.8 µM (inactive) | 5.51 µM (inactive) | 15 µM (inactive) | 9.2 µM (inactive) | 15.4 µM (inactive) | – | 26.2 µM (inactive) | 21.7 µM (inactive) | 15.7 µM (inactive)
9 | C=CCOc1ccc(C2(c3ccc(OCC=C)cc3)C(=O)Nc3ccccc32)cc1 | > 10 µM (inactive) | > 10 µM (inactive) | > 10 µM (inactive) | > 10 µM (inactive) | > 10 µM (inactive) | > 10 µM (inactive) | 1.46 µM (inactive) | > 10 µM (inactive) | > 10 µM (inactive) | > 10 µM (inactive) | > 10 µM (inactive) | > 10 µM (inactive) | > 10 µM (inactive) | > 10 µM (inactive) | > 10 µM (inactive) | > 10 µM (inactive) | > 10 µM (inactive) | > 10 µM (inactive) | – | > 10 µM (inactive)
10 | COC(=O)/C(=C(/C)c1ccco1)P(=O)(OC)OC | > 100 µM (inactive) | > 100 µM (inactive) | > 100 µM (inactive) | – | > 100 µM (inactive) | > 100 µM (inactive) | > 100 µM (inactive) | > 100 µM (inactive) | > 100 µM (inactive) | – | > 100 µM (inactive) | > 100 µM (inactive) | > 100 µM (inactive) | > 100 µM (inactive) | > 100 µM (inactive) | > 100 µM (inactive) | > 100 µM (inactive) | > 100 µM (inactive) | 0.01 µM (active) | –
11 | Cc1ccc(S(=O)(=O)NCCN(CCNS(=O)(=O)c2ccc(C)cc2)S(=O)(=O)c2ccc(C)cc2)cc1 | 60 µM (inactive) | > 100 µM (inactive) | > 100 µM (inactive) | – | 47.4 µM (inactive) | > 100 µM (inactive) | 22.9 µM (inactive) | 84.1 µM (inactive) | > 100 µM (inactive) | > 100 µM (inactive) | > 100 µM (inactive) | > 100 µM (inactive) | > 100 µM (inactive) | 47.4 µM (inactive) | > 100 µM (inactive) | > 100 µM (inactive) | 43.9 µM (inactive) | > 100 µM (inactive) | > 100 µM (inactive) | > 100 µM (inactive)
12 | [O-][Cl+3]([O-])([O-])[O-].[O-][Cl+3]([O-])([O-])[O-].c1ccn2c(N3CCCC3)[n+]3c4ccccc4n4c(N5CCCC5)[n+]5ccccc5c4c3c2c1 | > 100 µM (inactive) | > 100 µM (inactive) | 78.3 µM (inactive) | > 100 µM (inactive) | – | – | 33.4 µM (inactive) | 42.7 µM (inactive) | 54.5 µM (inactive) | 94.4 µM (inactive) | 64.1 µM (inactive) | 87.5 µM (inactive) | 46.5 µM (inactive) | 15.3 µM (inactive) | 46.3 µM (inactive) | 39.2 µM (inactive) | 22.2 µM (inactive) | > 100 µM (inactive) | – | 35.8 µM (inactive)
13 | C=CCOc1cccc(C2(O)c3ccccc3C3=NCCCN32)c1 (stereo not given) | 3.63 µM (inactive) | 41.2 µM (inactive) | 14.5 µM (inactive) | 1.47 µM (inactive) | 6.84 µM (inactive) | 8.57 µM (inactive) | 28.6 µM (inactive) | 8.38 µM (inactive) | 10.3 µM (inactive) | 16.8 µM (inactive) | 19.5 µM (inactive) | 1.25 µM (inactive) | 10.3 µM (inactive) | 54.7 µM (inactive) | – | 1.72 µM (inactive) | 17 µM (inactive) | 11.9 µM (inactive) | 13.8 µM (inactive) | 4.58 µM (inactive)
14 | CCCCCC(=O)N[C@H](C(=O)N[C@H](C(=O)N(C)[C@@H](CC(C)C)C(=O)N1CCC[C@H]1C(=O)N1CCC[C@H]1C(=O)O[C@H](C(=O)N1C(=O)C=C(OC)[C@@H]1Cc1ccccc1)C(C)C)C(C)C)C(C)C (Hexanoyl-VV[NMeL]PP-X26) | > 100 µM (inactive) | > 43.8 µM (inactive) | > 74.3 µM (inactive) | 1.46 µM (inactive) | > 100 µM (inactive) | > 100 µM (inactive) | > 88.3 µM (inactive) | > 44.2 µM (inactive) | 21.2 µM (inactive) | > 100 µM (inactive) | > 100 µM (inactive) | > 100 µM (inactive) | 27.2 µM (inactive) | > 41.9 µM (inactive) | > 100 µM (inactive) | > 100 µM (inactive) | – | > 100 µM (inactive) | – | 10.3 µM (inactive)
